Measurements from the supplement of paper PMC10627819.

Key:
[1] = system: B. subtilis 168; assay: Bliss interaction score (quartile over a dose matrix) (fitness difference); higher = more antagonism (negative = synergy)
How it was run: (§1)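 Each OD595 reading at entry into stationary phase was scaled to the robust mean of the untreated wells on its plate, with a ceiling of 1. These ratios define fitness, and single-drug fitness was inferred from combinations. The Bliss score compares observed fitness with the product-based expectation and is reported as quartiles across all replicate types, technical, biological and donor/recipient.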

[2] = system: S. aureus DSM 20231; assay: as above
How it was run: as §1

[3] = system: S. aureus Newman; assay: as above
How it was run: as §1

[4] = system: S. pneumoniae D39V; assay: as above
How it was run: as §1

[5] = system: S. aureus DSM 20231; assay: fitness (endpoint OD595 vs no drug) (fraction); higher = more growth
How it was run: (§2)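 In 384-well plates at 37 °C, cultures began at OD595 0.01 in 30 µl, with 55 µl used for S. pneumoniae. OD595 readings every 30 min for 14 h were corrected by the first reading. Fitness divides the stationary-phase transition optical density by the robust mean of no-drug control wells. The result is capped at 1.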

[6] = system: S. aureus Newman; assay: as above
How it was run: as §2

[7] = first compound 0.125 µg/mL, partner 0.1562 µg/mL, main component drawn
[8] = first compound 0.125 µg/mL, partner 0.3125 µg/mL, main component drawn
[9] = first compound 0.125 µg/mL, partner 0.625 µg/mL, main component drawn
[10] = first compound 0.25 µg/mL, partner 0.1562 µg/mL, main component drawn
[11] = first compound 0.25 µg/mL, partner 0.3125 µg/mL, main component drawn
[12] = first compound 0.25 µg/mL, partner 0.625 µg/mL, main component drawn
[13] = first compound 0.125 µg/mL, partner 0.1875 µg/mL
[14] = first compound 0.125 µg/mL, partner 0.375 µg/mL
[15] = first compound 0.125 µg/mL, partner 0.75 µg/mL
[16] = first compound 0.25 µg/mL, partner 0.1875 µg/mL
[17] = first compound 0.25 µg/mL, partner 0.375 µg/mL
[18] = first compound 0.25 µg/mL, partner 0.75 µg/mL
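Throughout, for Bliss interaction score (quartile over a dose matrix): first quartile when negative (synergy) and third quartile when positive (antagonism).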
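Throughout, for fitness (endpoint OD595 vs no drug): OD595 on entry to stationary phase over no-drug wells; at most 1.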

**Q.** Which Bliss interaction score ([1]; main component drawn) does the source give for `CC[C@H]1OC(=O)[C@H](C)[C@@H](O[C@H]2C[C@@](C)(OC)[C@@H](O)[C@H](C)O2)[C@H](C)[C@@H](O[C@@H]2O[C@H](C)C[C@H](N(C)C)[C@H]2O)[C@](C)(O)C[C@@H](C)CN(C)[C@H](C)[C@@H](O)[C@]1(C)O` [Azithromycin] + CCCCCCCCCC(=O)N[C@@H]1[C@H]([C@@H]([C@H](O[C@H]1OC2=C3C=C4C=C2OC5=C(C=C(C=C5)[C@H]([C@H]6C(=O)N[C@@H](C7=C(C(=CC(=C7)O)OC8[C@H]([C@H]([C@@H]([C@H](O8)CO)O)O)O)C9=C(C=CC(=C9)[C@H](C(=O)N6)NC(=O)[C@@H]4NC(=O)[C@@H]1C2=CC(=CC(=C2)OC2=C(C=CC(=C2)[C@H](C(=O)N[C@H](CC2=CC(=C(O3)C=C2)Cl)C(=O)N1)N)O)O)O)C(=O)O)O[C@H]1[C@@H]([C@H]([C@@H]([C@H](O1)CO)O)O)NC(=O)C)Cl)CO)O)O [Teicoplanin] here?
**A.** -0.0653

**Q.** What about the Bliss interaction score ([2]; main component drawn) of the same molecule?
**A.** 0.104

**Q.** And the Bliss interaction score ([3]; main component drawn)?
**A.** 0.169

**Q.** And the Bliss interaction score ([4]; main component drawn)?
**A.** 0.0706

**Q.** And the fitness [5, 7]?
**A.** 0.915

**Q.** And the fitness [5, 8]?
**A.** 0.924

**Q.** What about the fitness [5, 9] of the same molecule?
**A.** 0.991

**Q.** What about the fitness [5, 10] of the same molecule?
**A.** 0.935

**Q.** And the fitness [5, 11]?
**A.** 0.987

**Q.** And the fitness [5, 12]?
**A.** ≥ 1

**Q.** What about the fitness [6, 7] of the same molecule?
**A.** 0.899

**Q.** What about the fitness [6, 8] of the same molecule?
**A.** 0.928

**Q.** And the fitness ([6]; first compound 0.125 µg/mL, partner 0.62 µg/mL, one replicate, main component drawn)?
**A.** 0.799

**Q.** What about the fitness [6, 9] of the same molecule?
**A.** ≥ 1

**Q.** And the fitness ([6]; first compound 0.125 µg/mL, partner 1.24 µg/mL, one replicate, main component drawn)?
**A.** 0.786

**Q.** What about the fitness ([6]; first compound 0.125 µg/mL, partner 2.48 µg/mL, one replicate, main component drawn) of the same molecule?
**A.** 0.57

**Q.** And the fitness [6, 10]?
**A.** 0.978

**Q.** And the fitness [6, 11]?
**A.** 0.974

**Q.** And the fitness ([6]; first compound 0.25 µg/mL, partner 0.62 µg/mL, one replicate, main component drawn)?
**A.** 0.998

**Q.** And the fitness [6, 12]?
**A.** 0.775

**Q.** And the fitness ([6]; first compound 0.25 µg/mL, partner 1.24 µg/mL, one replicate, main component drawn)?
**A.** 0.812

**Q.** What about the fitness ([6]; first compound 0.25 µg/mL, partner 2.48 µg/mL, one replicate, main component drawn) of the same molecule?
**A.** 0.55

**Q.** What about the fitness ([6]; first compound 0.5 µg/mL, partner 0.62 µg/mL, one replicate, main component drawn) of the same molecule?
**A.** 0.863

**Q.** What about the fitness ([6]; first compound 0.5 µg/mL, partner 1.24 µg/mL, one replicate, main component drawn) of the same molecule?
**A.** 0.896

**Q.** What about the fitness ([6]; first compound 0.5 µg/mL, partner 2.48 µg/mL, one replicate, main component drawn) of the same molecule?
**A.** 0.579

**Q.** How did the Bliss interaction score [1] turn out when `CC[C@H]1OC(=O)[C@H](C)[C@@H](O[C@H]2C[C@@](C)(OC)[C@@H](O)[C@H](C)O2)[C@H](C)[C@@H](O[C@@H]2O[C@H](C)C[C@H](N(C)C)[C@H]2O)[C@](C)(O)C[C@@H](C)CN(C)[C@H](C)[C@@H](O)[C@]1(C)O` [Azithromycin] + CN[C@H](CC(C)C)C(=O)N[C@H]1C(=O)N[C@@H](CC(N)=O)C(=O)N[C@H]2C(=O)N[C@H]3C(=O)N[C@H](C(=O)N[C@H](C(=O)O)c4cc(O)cc(O)c4-c4cc3ccc4O)[C@H](O)c3ccc(c(Cl)c3)Oc3cc2cc(c3O[C@@H]2O[C@H](CO)[C@@H](O)[C@H](O)[C@H]2O[C@H]2C[C@](C)(N)[C@H](O)[C@H](C)O2)Oc2ccc(cc2Cl)[C@H]1O [Vancomycin] was run?
**A.** -0.0288

**Q.** What about the Bliss interaction score [2] of the same molecule?
**A.** 0.0943

**Q.** And the Bliss interaction score [3]?
**A.** -0.104

**Q.** What about the Bliss interaction score [4] of the same molecule?
**A.** -0.0427

**Q.** What about the fitness [5, 13] of the same molecule?
**A.** 0.846

**Q.** And the fitness [5, 14]?
**A.** 0.875

**Q.** What about the fitness [5, 15] of the same molecule?
**A.** 0.898

**Q.** And the fitness [5, 16]?
**A.** 0.819

**Q.** What about the fitness [5, 17] of the same molecule?
**A.** 0.874

**Q.** And the fitness [5, 18]?
**A.** 0.829

**Q.** And the fitness [6, 13]?
**A.** 0.909

**Q.** And the fitness [6, 14]?
**A.** 0.906

**Q.** And the fitness [6, 15]?
**A.** 0.882

**Q.** And the fitness [6, 16]?
**A.** 0.855

**Q.** What about the fitness [6, 17] of the same molecule?
**A.** 0.893

**Q.** And the fitness [6, 18]?
**A.** 0.862
